Data as given in the CheMixHub viscosity set.
Several values for one entry are separate records, joined by “and”; a condition that tells them apart may be missing. Identical values can stand only once.

Assay: xn = mol fraction of the nth substance listed

CN(C)C=O + O
Conditions	viscosity
303.15 K, 101 kPa, x2 = 0.9	1.519 mPa·s and 1.516 mPa·s
303.15 K, 101 kPa, x2 = 0.94	1.24 mPa·s and 1.24 mPa·s
303.15 K, 101 kPa, x2 = 0.96	1.093 mPa·s and 1.091 mPa·s
303.15 K, 101 kPa, x2 = 0.98	0.9451 mPa·s and 0.9453 mPa·s
305.15 K, 101 kPa, x1 = 0.0254	1.107 mPa·s
305.15 K, 101 kPa, x1 = 0.0555	1.335 mPa·s
305.15 K, 101 kPa, x1 = 0.0915	1.61 mPa·s
305.15 K, 101 kPa, x1 = 0.1355	1.795 mPa·s
305.15 K, 101 kPa, x1 = 0.1904	2.021 mPa·s
305.15 K, 101 kPa, x1 = 0.2608	2.238 mPa·s
305.15 K, 101 kPa, x1 = 0.2921	2.27 mPa·s
305.15 K, 101 kPa, x1 = 0.304	2.308 mPa·s
305.15 K, 101 kPa, x1 = 0.3199	2.282 mPa·s
305.15 K, 101 kPa, x1 = 0.3544	2.262 mPa·s
305.15 K, 101 kPa, x1 = 0.4137	2.102 mPa·s
305.15 K, 101 kPa, x1 = 0.4848	1.934 mPa·s
305.15 K, 101 kPa, x1 = 0.5714	1.619 mPa·s
305.15 K, 101 kPa, x1 = 0.6792	1.393 mPa·s
305.15 K, 101 kPa, x1 = 0.8171	1.106 mPa·s
308.15 K, 101 kPa, x1 = 0.0254	0.985 mPa·s
308.15 K, 101 kPa, x1 = 0.027	0.9526 mPa·s
308.15 K, 101 kPa, x1 = 0.0555	1.164 mPa·s
308.15 K, 101 kPa, x1 = 0.058	1.163 mPa·s
308.15 K, 101 kPa, x1 = 0.0915	1.428 mPa·s
308.15 K, 101 kPa, x1 = 0.1355	1.583 mPa·s
308.15 K, 101 kPa, x1 = 0.14	1.539 mPa·s
308.15 K, 101 kPa, x1 = 0.1904	1.823 mPa·s
308.15 K, 101 kPa, x1 = 0.2608	1.989 mPa·s
308.15 K, 101 kPa, x1 = 0.2921	1.999 mPa·s
308.15 K, 101 kPa, x1 = 0.304	2.044 mPa·s
308.15 K, 101 kPa, x1 = 0.3199	1.976 mPa·s
308.15 K, 101 kPa, x1 = 0.3544	1.985 mPa·s
308.15 K, 101 kPa, x1 = 0.4137	1.872 mPa·s
308.15 K, 101 kPa, x1 = 0.4848	1.685 mPa·s
308.15 K, 101 kPa, x1 = 0.5714	1.424 mPa·s
308.15 K, 101 kPa, x1 = 0.6792	1.245 mPa·s
308.15 K, 101 kPa, x1 = 0.8171	1.029 mPa·s
308.15 K, 101 kPa, x2 = 0.1	0.7874 mPa·s and 0.7848 mPa·s
308.15 K, 101 kPa, x2 = 0.2	0.8915 mPa·s and 0.8893 mPa·s
308.15 K, 101 kPa, x2 = 0.3	1.036 mPa·s and 1.033 mPa·s
308.15 K, 101 kPa, x2 = 0.4	1.226 mPa·s and 1.224 mPa·s
308.15 K, 101 kPa, x2 = 0.5	1.468 mPa·s and 1.467 mPa·s
308.15 K, 101 kPa, x2 = 0.6	1.707 mPa·s and 1.702 mPa·s
308.15 K, 101 kPa, x2 = 0.7	1.856 mPa·s and 1.856 mPa·s
308.15 K, 101 kPa, x2 = 0.8	1.759 mPa·s and 1.757 mPa·s
308.15 K, 101 kPa, x2 = 0.9	1.335 mPa·s and 1.335 mPa·s
308.15 K, 101 kPa, x2 = 0.92	1.221 mPa·s and 1.22 mPa·s
308.15 K, 101 kPa, x2 = 0.94	1.1 mPa·s and 1.1 mPa·s
308.15 K, 101 kPa, x2 = 0.96	0.9743 mPa·s and 0.9712 mPa·s
308.15 K, 101 kPa, x2 = 0.98	0.8498 mPa·s and 0.8476 mPa·s
313.15 K, 101 kPa, x1 = 0.0254	0.856 mPa·s
313.15 K, 101 kPa, x1 = 0.027	0.8698 mPa·s
313.15 K, 101 kPa, x1 = 0.0555	1.011 mPa·s
313.15 K, 101 kPa, x1 = 0.058	1.067 mPa·s
313.15 K, 101 kPa, x1 = 0.0915	1.284 mPa·s
313.15 K, 101 kPa, x1 = 0.1355	1.433 mPa·s
313.15 K, 101 kPa, x1 = 0.14	1.392 mPa·s
313.15 K, 101.33 kPa, x1 = 0.0217	0.7737 mPa·s
313.15 K, 101.33 kPa, x1 = 0.0466	0.9108 mPa·s
313.15 K, 101.33 kPa, x1 = 0.0989	1.188 mPa·s
313.15 K, 101.33 kPa, x1 = 0.1478	1.404 mPa·s
313.15 K, 101.33 kPa, x1 = 0.2481	1.713 mPa·s
313.15 K, 101.33 kPa, x1 = 0.2859	1.729 mPa·s
313.15 K, 101.33 kPa, x1 = 0.3728	1.586 mPa·s
313.15 K, 101.33 kPa, x1 = 0.4919	1.351 mPa·s
313.15 K, 101.33 kPa, x1 = 0.5936	1.177 mPa·s
313.15 K, 101.33 kPa, x1 = 0.6889	1.005 mPa·s
313.15 K, 101.33 kPa, x1 = 0.7991	0.8768 mPa·s
313.15 K, 101.33 kPa, x1 = 0.8795	0.8096 mPa·s
318.15 K, 101 kPa, x1 = 0.027	0.796 mPa·s
318.15 K, 101 kPa, x1 = 0.058	0.9746 mPa·s
318.15 K, 101 kPa, x1 = 0.14	1.24 mPa·s
323.15 K, 101 kPa, x1 = 0.027	0.7318 mPa·s
323.15 K, 101 kPa, x1 = 0.058	0.8939 mPa·s
323.15 K, 101 kPa, x1 = 0.14	1.096 mPa·s
